*1 amine or outer side, *2 acyl side, *3 side chain or, on linkers, in order; H or OH if unused. Where a SMILES comes first, the peptide text is derived from it. [ ]: non-standard residue; d: D form. The star is where a group is joined. ξ: configuration not given here. Ala(6-(2-MePh)pyridin-3-yl) = Cc1ccccc1-c1ccc(C[C@H](N)C(=O)O)cn1; Bip(2'-Et-4'-OMe) = CCc1cc(OC)ccc1-c1ccc(C[C@H](N)C(=O)O)cc1; Lactoyl(3-(imidazol-4-yl)) = O=C([C@@H](O)Cc1c[nH]cn1)*; X2 = Cc1ccccc1-c1ncc(C[C@H](N[*:1])C(=O)[*:2])cn1; Bip(2'-Me) = Cc1ccccc1-c1ccc(C[C@H](N)C(=O)O)cc1; αMePhe(2,6-F2) = C[C@](N)(Cc1c(F)cccc1F)C(=O)O; αMePhe(2-F) = C[C@](N)(Cc1ccccc1F)C(=O)O; ξαMePhe(2-F) = CC(N)(Cc1ccccc1F)C(=O)O; Thr(3ξ) = CC(O)[C@H](N)C(=O)O; αMeP = C[C@@]1(C(=O)O)CCCN1; dNMeA = CN[C@H](C)C(=O)O; ξαMeP = CC1(C(=O)O)CCCN1; Aib = CC(C)(N)C(=O)O; Moc = COC(=O)*
How the values were obtained:
Assay type in all cases: in vivo
[1] = Exposure during ipGTT in ob/ob mice; conditions: sc
Procedure: (§1) Peptides were dissolved in an appropriate vehicle at a concentration in nmol/ml equivalent to the dose that was to be administered in nmol/kg so that each mouse would receive the same volume/weight of dosing solution. Male C57BL/6J-ob/ob mice (10 weeks old) were randomized into groups of 6 mice per group based on fed plasma glucose and body weight. After an overnight fast, mice were weighed and placed in the experimental lab. After 30 min in the environment, the mice were bled via tail tip at −30 min and immediately injected subcutaneously (sc) with vehicle or the peptide dissolved in vehicle (0.1 ml solution/100 g body weight). At time 0 the mice were bled and then injected intraperitoneally with 50% glucose (2 g/kg) to initiate the intraperitoneal glucose tolerance test (ipGTT). The mice were bled 30, 60, 120 and 180 min after the glucose injection. Blood samples were drawn into potassium EDTA, placed on ice during the study and subsequently centrifuged for 10 min at 3000 rpm at 4° C. Plasma samples were diluted 11-fold for glucose analysis in the Cobas System. Another 5 μl plasma sample was diluted 5-fold with 20 μl of Sample Diluent (Insulin ELISA assay kit, Crystal Chem Inc.) and stored at −20° C. for subsequent analysis using the Ultra Sensitive Mouse Insulin ELISA kit (Crystal Chem Inc.).

[2] = Dog pharmacokinetic study (iv and sc, solution vehicles); conditions: vehicle propylene glycol/pH 7.4 phosphate buffer (1:1); for AUC: male, beagle, dog, plasma, sc, 67 ug/kg, Table II, read-out: Exposure in dogs (sc@67 μg/kg)
Procedure: The pharmacokinetic parameters of the compound of SEQ ID NO:9 were determined in male beagle dogs (n=4, 14±1 kg). Following an overnight fast, each animal received the compound of SEQ ID NO:9 either as an intravenous bolus via femoral vein (67 μg/kg) or by subcutaneous injection given at near the shoulder blades (67 μg/kg). Each animal received both intravenous and subcutaneous doses with a one-week washout between doses following a crossover design. […] Serial blood samples were collected in EDTA-containing microcentrifuge tubes at predose, 0.083, 0.25, 0.5, 0.75, 1, 2, 4, 6, 8, 24, and 30 hours post-dose after intravenous administration; at predose, 0.25, 0.5, 0.75, 1, 2, 4, 6, 8, 24, and 30 hours post-dose after subcutaneous administration. Approximately 0.3 mL of blood was collected at each time point. Blood samples were immediately centrifuged at 4° C. The obtained plasma was frozen with dry ice and stored at −20° C. Plasma drug levels were determined using the LC-MS/MS assay described above.
Plasma samples from in vivo dog study were prepared for analysis by precipitating plasma proteins with two volumes of acetonitrile containing an internal standard. The samples were vortex mixed and removed the precipitated proteins by centrifugation. The resulting supernatants were transferred to a 96-well plate and 10 μL were injected for analysis. Samples were prepared with the Packard Multiprobe II and Quadra 96 Liquid Handling System.
The HPLC system consisted of two Shimadzu LC10AD pumps (Columbia, Md.), a CTC PAL autosampler (Leap Technologies, Switzerland). The column used was a YMC Hydrosphere C18 (2.0×50 mm, 3 μm) (YMC, Inc., Milford, Ma.). The column temperature was maintained at 50° C. and the flow rate was 0.3 mL/minute. The mobile phase A consisted of 10 mM ammonium formate and 0.1% formic acid in water and mobile phase B consisted of 0.1% formic acid in acetonitrile. The initial mobile phase composition was 5% B, and remained at 5% B for one minute to equilibrate the column. The composition was ramped to 95% B over two minutes and held there for one additional minute. The mobile phase was then returned to initial conditions in one minute. Total analysis time was five minutes. A switching valve was used. The eluents between 0-1 minute were diverted to the waste.
The HPLC was interfaced to a Sciex API 4000 mass spectrometer, (Applied Biosystems, Foster City, Calif.) and was equipped with a TurboIonspray ionization source. Ultra high purity nitrogen was used as the nebulizing and turbo gas. The temperature of turbo gas was set at 300° C. and the interface heater was set at 60° C. Data acquisition utilized selected reaction monitoring (SRM). Ions representing the (M+2H)^2+ species for the compound of SEQ ID NO:9, and (M+2H)^2+ for BMS-501143 (IS) were selected in Q1 and were collisionally dissociated with high purity nitrogen at a pressure of 3.5×10^−3torr to form specific product ions which were subsequently monitored by Q3.
The standard curve concentrations, ranging from 1 to 1000 nM and from 4 to 5000 nM, were used for the in vivo samples obtained from low and high doses, respectively. The curves were fitted with a quadratic regression weighted by reciprocal […]. Standards were analyzed in duplicate. Quality control (QC) samples, prepared in blank matrix at the same concentrations as the standard were also analyzed in each analytical set. For the compound of SEQ ID NO:9, the calculated concentrations of more than 80% of the QCs were within 20% of nominal concentration, indicating acceptable assay performance.
The compound of SEQ ID NO:9 plasma concentration vs. time data were analyzed by noncompartmental methods using the […]™ software program. The Cmax and Tmax values were recorded directly from experimental observations. The AUC0-n and AUCtot values were calculated using a combination of linear and log trapezoidal summations. […]

ob/ob mice = assay: intraperitoneal glucose tolerance test (ipGTT) after sc injection in ob/ob mice (plasma glucose, insulin); conditions: for % AUC Reduction in Plasma Glucose in an IP Glucose Tolerance Test after SC Injection of Compound: 10 nmol/kg, vs vehicle group; for effect on postprandial plasma glucose (in words): ipGTT 0-180 or 210 min; for Potency in ob/ob mice, ED50: sc injection, ipGTT, plasma glucose AUC
Procedure: as §1

Structure (SMILES)	Exposure/dose during ipGTT in ob/ob mice [1] [nM * h/nmol/kg]	AUC [2] [µM·h]	% AUC Reduction in Plasma Glucose in an IP Glucose Tolerance Test after SC Injection of Compound (ob/ob mice; ob/ob mice)	effect on postprandial plasma glucose (in words) (ob/ob mice; ob/ob mice, sc)	other results
CCc1cc(OC)ccc1-c1ccc(C[C@H](NC(=O)[C@H](CC(=O)O)NC(=O)[C@H](CO)NC(=O)[C@@H](NC(=O)[C@](C)(Cc2ccccc2F)NC(=O)[C@@H](NC(=O)CNC(=O)[C@H](CCC(=O)O)NC(=O)C(C)(C)NC(=O)[C@@H](N)Cc2c[nH]cn2)C(C)O)C(C)O)C(=O)N[C@@H](Cc2ccc(-c3ccccc3C)cc2)C(N)=O)cc1 (some centres unmarked) [Compound I, reference compound] (H-H[Aib]EG[Thr(3ξ)][αMePhe(2-F)][Thr(3ξ)]SD[Bip(2'-Et-4'-OMe)][Bip(2'-Me)]-NH2)	22	0.089	−15% (p = 0.247, NS)	decreasing in a dose-dependent manner	Exposure in dogs (sc@67 μg/kg) ([2]; Table I): 0.089 µM·h; Potency in ob/ob mice, ED50 (ob/ob mice): ED50 = 50 nmoles/kg; Potency in ob/ob mice, ED50 (ob/ob mice; listed as compound I): 50 nmol/kg
CCc1cc(OC)ccc1-c1ccc(C[C@H](NC(=O)[C@H](CC(=O)O)NC(=O)[C@H](CO)NC(=O)[C@@H](NC(=O)C(C)(Cc2ccccc2F)NC(=O)[C@@H](NC(=O)CNC(=O)[C@H](CCC(=O)O)NC(=O)C2(C)CCCN2C(=O)[C@@H](N)Cc2c[nH]cn2)[C@@H](C)O)[C@@H](C)O)C(=O)N[C@@H](Cc2ccc(-c3ccccc3C)nc2)C(N)=O)cc1 (some centres unmarked) [SEQ ID NO: 118] (H-H[ξαMeP]EGT[ξαMePhe(2-F)]TSD[Bip(2'-Et-4'-OMe)][Ala(6-(2-MePh)pyridin-3-yl)]-NH2)	4.4	4.02	−70% (p < 0.001)	statistically significant decrease	plasma glucose AUC decrease (ob/ob mice; ob/ob mice, sc, 30 nmol/kg): 81%; Potency in ob/ob mice, ED50 (ob/ob mice): 2.5 nmol/kg
CCc1cc(OC)ccc1-c1ccc(C[C@H](NC(=O)[C@H](CC(=O)O)NC(=O)[C@H](CO)NC(=O)[C@@H](NC(=O)[C@](C)(Cc2ccccc2F)NC(=O)[C@@H](NC(=O)CNC(=O)[C@H](CCC(=O)O)NC(=O)[C@@H](C)N(C)C(=O)[C@@H](N)Cc2c[nH]cn2)[C@@H](C)O)[C@@H](C)O)C(=O)N[C@@H](Cc2ccc(-c3ccccc3C)nc2)C(N)=O)cc1 [SEQ ID NO: 119] (H-H[dNMeA]EGT[αMePhe(2-F)]TSD[Bip(2'-Et-4'-OMe)][Ala(6-(2-MePh)pyridin-3-yl)]-NH2)		1.26			
CCc1cc(OC)ccc1-c1ccc(C[C@H](NC(=O)[C@H](CC(=O)O)NC(=O)[C@H](Cc2c[nH]cn2)NC(=O)[C@@H](NC(=O)[C@](C)(Cc2ccccc2F)NC(=O)[C@@H](NC(=O)CNC(=O)[C@H](CCC(=O)O)NC(=O)[C@]2(C)CCCN2C(=O)[C@@H](N)Cc2c[nH]cn2)[C@@H](C)O)[C@@H](C)O)C(=O)N[C@@H](Cc2ccc(-c3ccccc3C)nc2)C(N)=O)cc1 [SEQ ID NO: 120] (H-H[αMeP]EGT[αMePhe(2-F)]THD[Bip(2'-Et-4'-OMe)][Ala(6-(2-MePh)pyridin-3-yl)]-NH2)		1.12			
CCc1cc(OC)ccc1-c1ccc(C[C@H](NC(=O)[C@H](CC(=O)O)NC(=O)[C@H](CO)NC(=O)[C@@H](NC(=O)[C@](C)(Cc2ccccc2F)NC(=O)[C@@H](NC(=O)CNC(=O)[C@H](CCC(=O)O)NC(=O)C(C)(C)NC(=O)[C@@H](N)Cc2c[nH]cn2)[C@@H](C)O)[C@@H](C)O)C(=O)N[C@@H](Cc2cnc(-c3ccccc3C)nc2)C(N)=O)cc1 [SEQ ID NO: 130] (H-H[Aib]EGT[αMePhe(2-F)]TSD[Bip(2'-Et-4'-OMe)][X2]-NH2)		0.541			
CCc1cc(OC)ccc1-c1ccc(C[C@H](NC(=O)[C@H](CC(=O)O)NC(=O)[C@H](CO)NC(=O)[C@@H](NC(=O)C(C)(Cc2ccccc2F)NC(=O)[C@@H](NC(=O)CNC(=O)[C@H](CCC(=O)O)NC(=O)C2(C)CCCN2C(=O)[C@H](Cc2c[nH]cn2)NC(=O)OC)[C@@H](C)O)[C@@H](C)O)C(=O)N[C@@H](Cc2ccc(-c3ccccc3C)nc2)C(N)=O)cc1 (some centres unmarked) [SEQ ID NO: 139] (Moc-H[ξαMeP]EGT[ξαMePhe(2-F)]TSD[Bip(2'-Et-4'-OMe)][Ala(6-(2-MePh)pyridin-3-yl)]-NH2)		1.6	−63% (p < 0.01)		
CCc1cc(OC)ccc1-c1ccc(C[C@H](NC(=O)[C@H](CC(=O)O)NC(=O)[C@H](CO)NC(=O)[C@@H](NC(=O)[C@](C)(Cc2c(F)cccc2F)NC(=O)[C@@H](NC(=O)CNC(=O)[C@H](CCC(=O)O)NC(=O)[C@]2(C)CCCN2C(=O)[C@H](Cc2c[nH]cn2)NC(=O)OC)[C@@H](C)O)[C@@H](C)O)C(=O)N[C@@H](Cc2ccc(-c3ccccc3C)nc2)C(N)=O)cc1 [SEQ ID NO: 140] (Moc-H[αMeP]EGT[αMePhe(2,6-F2)]TSD[Bip(2'-Et-4'-OMe)][Ala(6-(2-MePh)pyridin-3-yl)]-NH2)		0.283			
CCc1cc(OC)ccc1-c1ccc(C[C@H](NC(=O)[C@H](CC(=O)O)NC(=O)[C@H](CO)NC(=O)[C@@H](NC(=O)[C@](C)(Cc2ccccc2F)NC(=O)[C@@H](NC(=O)CNC(=O)[C@H](CCC(=O)O)NC(=O)[C@@H](C)NC(=O)[C@@H](N)Cc2c[nH]cn2)[C@@H](C)O)[C@@H](C)O)C(=O)N[C@@H](Cc2ccc(-c3ccccc3C)nc2)C(N)=O)cc1 [SEQ ID NO: 149] (H-H[dA]EGT[αMePhe(2-F)]TSD[Bip(2'-Et-4'-OMe)][Ala(6-(2-MePh)pyridin-3-yl)]-NH2)		0.94			
CCc1cc(OC)ccc1-c1ccc(C[C@H](NC(=O)[C@H](CC(=O)O)NC(=O)[C@H](CO)NC(=O)[C@@H](NC(=O)[C@](C)(Cc2ccccc2F)NC(=O)[C@@H](NC(=O)CNC(=O)[C@H](Cc2c[nH]cn2)NC(=O)C(C)(C)NC(=O)[C@@H](N)Cc2c[nH]cn2)[C@@H](C)O)[C@@H](C)O)C(=O)N[C@@H](Cc2ccc(-c3ccccc3C)nc2)C(N)=O)cc1 [SEQ ID NO: 150] (H-H[Aib]HGT[αMePhe(2-F)]TSD[Bip(2'-Et-4'-OMe)][Ala(6-(2-MePh)pyridin-3-yl)]-NH2)		0.979			
CCc1cc(OC)ccc1-c1ccc(C[C@H](NC(=O)[C@H](CC(=O)O)NC(=O)[C@H](Cc2c[nH]cn2)NC(=O)[C@@H](NC(=O)C(C)(Cc2ccccc2F)NC(=O)[C@@H](NC(=O)CNC(=O)[C@H](CCC(=O)O)NC(=O)C2(C)CCCN2C(=O)[C@@H](O)Cc2c[nH]cn2)[C@@H](C)O)[C@@H](C)O)C(=O)N[C@@H](Cc2ccc(-c3ccccc3C)nc2)C(N)=O)cc1 (some centres unmarked) [SEQ ID NO: 151] ({Lactoyl(3-(imidazol-4-yl))}-[ξαMeP]EGT[ξαMePhe(2-F)]THD[Bip(2'-Et-4'-OMe)][Ala(6-(2-MePh)pyridin-3-yl)]-NH2)	16			statistically significant decrease	
